Experimental data reported in PMC6018403 (Frontiers in Pharmacology, 2018).
Where two headings read alike, the source gives them in different places.

Test: Multi-component pharmacokinetic study of GQD, GQD-GC and single herb extracts in rats (plasma, LC/MS/MS)
Assay type: in vivo, Sprague-Dawley rats
Details: for AUC(0-t) / Cmax / half-life / Tmax: male, Sprague-Dawley, rat; for AUC(0-t): po, read-out: AUClast; for Cmax: read-out: Cmax; for half-life: read-out: T1/2 (converted); for Tmax: read-out: Tmax
Procedure: Male Sprague-Dawley rats (220–250 g) were used for PK study, and the details were described in Supplemental Data. All procedures were in accordance with the National Institutes of Health Guide for the Care and Use of Laboratory Animals.
For PK study of GQD and its component herbs, rats were randomly divided into six groups (n = 10 for each group) before oral administration.
All blood samples were immediately centrifuged at 6,000 rpm (4°C) for 20 min to obtain plasma. The plasma samples were stored at −80°C.
A Finnigan TSQ Quantum triple quadrupole mass spectrometer was connected to a Surveyor HPLC via ESI interface (ThermoFisher). High purity nitrogen was used as the sheath and auxiliary gas; Ultra-high purity argon was used as the collision gas (1.5 mTorr). Q1 and Q3 quadrupoles were set at unit resolution. […] The column temperature was 40°C. The mobile phase consisted of acetonitrile containing 2% (v/v) methanol (A) and water containing 0.1% (v/v) formic acid (B). […] An aliquot of 5 μL was injected for analysis. UV spectra were obtained by scanning from 200 to 400 nm. The mass spectrometer was operated in the (+)-ESI mode. The optimized parameters were as follows: sheath gas (N2), 50 arb; auxiliary gas (N2), 5 arb; spray voltage, 4.0 kV; capillary temperature, 330°C; collision energy, see Table S1. Analytes were detected in the selected reaction monitoring (SRM) mode. Data were processed by Xcalibur 2.0.7 software (ThermoFisher).
LC/MS/MS calibration and quantitation data were processed with Xcalibur 2.0.7 software (ThermoFisher). The maximal plasma concentrations (Cmax) and their time of occurrence (Tmax) were obtained directly from the measured data. Other pharmacokinetic parameters were calculated by non-compartment or compartment models using WinNonlin® software (v6.1, Pharsight). Unless otherwise stated, results were expressed as the mean ± SD. Statistical significance in differences of the means was determined by Student's t–test, with a significance level of P < 0.05.
Herbal materials and extracts.
The four component herbs, Puerariae Lobatae Radix (Ge-Gen, GG), Scutellariae Radix (Huang-Qin, HQ), Coptidis Rhizoma (Huang-Lian, HL), and Glycyrrhizae Radix et Rhizoma Praeparata cum Melle (Gan-Cao, GC) were purchased from Tianheng Pharmacy. GQD was prepared by decocting the four component herbs […]
pre-extraction of Ge-Gen using 200 mL of water for 0.5 h. The decoctions were combined, filtered, and concentrated in vacuum at 50 °C. GQD-GC was prepared using the same procedure, except that Gan-Cao was removed from the formula. Final concentration of the GQD-GC extract was equivalent to 1.0 g of the crude drugs per mL. For single herb extracts, the herbs were decocted in 8-fold volume of water for […]
Final concentrations of the extracts were 1.0 g/mL for Ge-Gen, and 0.5 g/mL for Huang-Qin, Huang-Lian and […]
For pharmacokinetic study, Male Sprague-Dawley rats (220-250 g) were obtained from the Laboratory Animal Center of Peking University Health Science Center. The […]
The rats had free access to tap water and soy-free custom diet (Ke’ao Xieli Co.). All procedures were in accordance with the National Institutes of Health Guide for the Care and Use of Laboratory Animals […]
Experimental details for the PK study
1. Preparation of internal standard solution, calibration standard solutions, and quality control solutions […]
internal standard solution. Reference standard compounds were dissolved in the internal standard solution to prepare individual stock solutions (1.0 mg/mL). These […]
each compound. The standard solution was then serially diluted to obtain calibration […]
Quality control stock solutions were prepared at three concentration levels as high QC (HQC), middle QC (MQC), and low QC (LQC), based on linear ranges of the analytes.
2.1. Sample preparation for pharmacokinetic study
The calibration standard and quality control solutions for pharmacokinetic study were […]

[1] = plasma, 3.54 g/kg, HQ (Huang-Qin) group: rats, oral extract 3.54 g/kg, plasma
[2] = plasma, 16.5 g/kg, GQD-GC group (GQD without Gan-Cao): rats, oral 16.5 g/kg, plasma
[3] = plasma, 18.9 g/kg, GQD group: rats, oral GQD extract 18.9 g/kg, plasma
[4] = GQD group: rats, oral GQD extract 18.9 g/kg, plasma
[5] = GQD-GC group (GQD without Gan-Cao): rats, oral 16.5 g/kg, plasma
[6] = HQ (Huang-Qin) group: rats, oral extract 3.54 g/kg, plasma
[7] = plasma, 9.45 g/kg, GG (Ge-Gen) group: rats, oral extract 9.45 g/kg, plasma
[8] = plasma, 18.9 g/kg, GQD group: rats, oral GQD 18.9 g/kg (1.5-fold of clinical dosage), plasma
[9] = GG (Ge-Gen) group: rats, oral extract 9.45 g/kg, plasma

Row | Compound | AUC(0-t) [1] [ng·h/mL] | AUC(0-t) [2] [ng·h/mL] | AUC(0-t) [3] [ng·h/mL] | Cmax [4] [ng/mL] | half-life [4] [h] | Tmax [4] [h] | Cmax [5] [ng/mL] | half-life [5] [h] | Tmax [5] [h] | Cmax [6] [ng/mL] | half-life [6] [h] | Tmax [6] [h] | AUC(0-t) [7] [ng·h/mL] | AUC(0-t) [8] [ng·h/mL] | Cmax [9] [ng/mL] | half-life [9] [h] | Tmax [9] [h] | further results
1 | O=C(O)[C@H]1O[C@@H](Oc2cc3oc(-c4ccccc4)cc(=O)c3c(O)c2O)[C@H](O)[C@@H](O)[C@@H]1O [Compound 17, baicalin] | 52600 ± 35500 | 39600 ± 2610 | 22300 ± 11200 | 1180 ± 870 | 4.8 ± 3.27 | 7.29 ± 1.38 | 1890 ± 988 | 5.34 ± 2.55 | 7.71 ± 1.34 | 4040 ± 584 | 3.32 ± 1.08 | 7.79 ± 0.99 | – | – | – | – | – | AUC(0-t) (plasma, 3.54 g/kg, Huang-Qin group: rats, oral 3.54 g/kg, plasma): 52600 ± 35500 ng·h/mL; decrease of Cmax in the GQD group compared with the Huang-Qin group (rats, oral, GQD vs Huang-Qin): at least 30%
2 | COc1ccc(-c2coc3cc(O[C@@H]4O[C@H](CO)[C@@H](O)[C@H](O)[C@H]4O)ccc3c2=O)cc1 [Compound 39, ononin] | – | 187 ± 129 | 500 ± 233 | 34.8 ± 34.2 | 5.73 ± 2.2 | 0.86 ± 0.15 | 24.1 ± 8.38 | 2.44 ± 1.45 | 0.74 ± 0.29 | – | – | – | 139 ± 52.4 | > 300 | 41.2 ± 11.4 | 1.21 ± 0.24 | 1.12 ± 0.29 | bioavailability in the GQD group compared with the Ge-Gen group (rats, oral): higher
3 | COc1c(O)cc(O)c2c(=O)cc(-c3ccccc3)oc12 [Compound 8, wogonin] | 473 ± 34.3 | 156 ± 73.4 | 282 ± 11.3 | 12.9 ± 7.39 | 6.63 ± 2.38 | 7.89 ± 0.99 | 10.2 ± 6.81 | 5.64 ± 1.09 | 8 ± 2.12 | 38 ± 7.22 | 5.45 ± 1.22 | 8.02 ± 2.48 | – | – | – | – | – | –
4 | COc1ccc(C2=CC(=O)OC2Cc2ccc(O)cc2)c(OC2OC(CO)C(O)C(O)C2O)c1 [Compound 41, (4S)-puerol B 2″-O-glucopyranoside] | – | 18.9 ± 4.09 | 37.5 ± 21.1 | 10.9 ± 9.4 | 7.98 ± 2.88 | 0.52 ± 0.26 | 11.1 ± 4.41 | 6.45 ± 5.16 | 0.53 ± 1.2 | – | – | – | 67.3 ± 28.7 | – | 14.9 ± 9.76 | 9.31 ± 2.19 | 0.52 ± 1.11 | –
5 | COc1c(CC=C(C)C)c(O)cc2oc(=O)c(-c3ccc(O)cc3O)cc12 [Compound 30, glycycoumarin] | – | – | 37.9 ± 29.9 | 7.47 ± 8.1 | 11.3 ± 3.38 | 2 ± 1.24 | – | – | – | – | – | – | – | 37.9 ± 29.9 | – | – | – | AUC (Gan-Cao group: rats, oral 2.36 g/kg, plasma): not detected; plasma concentrations, effect of GQD compared with Gan-Cao (rats, oral): improved
